# Read-outs that look alike come from different tables or passages of the source.
# Experiments:
# [1] = SFN metabolites in plasma by LC-MS/MS; conditions: BSE group n=42; for Plasma level of individual SFN metabolite, postintervention, Mean (SE): after 200 μmol SFN daily, 4–8 wk; for Plasma level of individual SFN metabolite, preintervention, Mean (SE): baseline before supplementation
# [2] = test system: AMACR expression in colon cancer Caco-2 cells; conditions: SFN treatment; cited from earlier work
# [3] = test system: AMACR mRNA in LNCaP cells; conditions: 6 and 24 h after a single SFN treatment; cited from earlier work
# [4] = in vivo
"Plasma level of individual SFN metabolite, change (post minus pre), Mean (SE) [1]","Plasma level of individual SFN metabolite, postintervention, Mean (SE) [1]","Plasma level of individual SFN metabolite, preintervention, Mean (SE) [1]","Plasma level of individual SFN metabolite, change (post minus pre), Mean (SE) [4]","Plasma level of individual SFN metabolite, preintervention, Mean (SE) [4]",Structure (SMILES),AMACR expression in colon cancer Caco-2 cells [2],AMACR mRNA levels in LNCaP cells [3]
0.0001 (0.0001) μM,0.0001 (0.0001) μM,0.00 (0.00) μM,,,"C[S+]([O-])CCCCN=C=S (stereo not shown) [SFN, sulforaphane]",significantly decrease AMACR expression,significantly downregulated
,,,0.04 (0.01) μM,0.00 (0.00) μM,"C[S+]([O-])CCCCNC(=S)SCC(N)C(=O)NCC(=O)O (stereo not shown) [SFN-CG, SFN-cysteinylglycine]",,
0.03 (0.01) μM,0.03 (0.01) μM,0.00 (0.00) μM,,,"CC(=O)N[C@@H](CSC(=S)NCCCC[S+](C)[O-])C(=O)O (stereo partly drawn) [SFN-NAC, SFN N-acetyl-L-cysteine]",,
0.03 (0.01) μM,0.03 (0.01) μM,0.00 (0.00) μM,,,"C[S+]([O-])CCCCNC(=S)SC[C@H](NC(=O)CC[C@H](N)C(=O)O)C(=O)NCC(=O)O (stereo partly shown) [SFN-GSH, SFN-glutathione]",,
0.02 (0.01) μM,0.02 (0.01) μM,0.00 (0.00) μM,,,"C[S+]([O-])CCCCNC(=S)SCC(N)C(=O)O (stereo not shown) [SFN-Cys, SFN-cysteine]",,
